For assay [1], the system named is non-small cell lung cancer. Put plainly: Xenograft models of non-small cell lung cancer (RNase 1 variants). In kind it is in vivo, mice. The settings on record: for (Final − start)/Control: relative to vehicle; for Starting volume: tumor volume at start; for tumor growth inhibition (in words): xenograft model of non-small cell lung cancer. As for the experimental part:
(§1) Cells from a non-small cell lung cancer cell line (A549) were grown in nine T175 flasks in F12K media and 10% fetal calf serum until the cells were confluent. 4.5×10^6 cells (in 100 microliters) were injected into the right rear flank of 4-5 week old male homozygous (nu/nu) nude mice (Harlan, Madison Wis.). Tumors were allowed to grow to an average size of ≧75 mm^3 before treatments were initiated. Animals of each tumor type, with the properly sized tumors, were divided into treatment groups, including one set of animals treated weekly with vehicle (phosphate buffered saline, PBS). The vehicle and the test agents were all administered by intraperitoneal injection. Each animal was weighed twice a week during treatment. The tumors were measured twice weekly using calipers. Tumor volume (mm^3) was determined by using the formula for an ellipsoid sphere: […]
(§2) The percent tumor growth inhibition (% TGI) is calculated by: […]

For assay [2], the system named is non-small cell lung cancer cell line (A549). Put plainly: In vivo inhibition of tumor growth, A549 xenograft. On the set-up: species or system human tumor cells in nude mice. The settings on record: for Starting volume: at start. How it is done:
Cells from a non-small cell lung cancer cell line (A549) were grown in nine T175 flasks in F12K media and 10% fetal calf serum until the cells were confluent. 4.5×10^6 cells (in 100 microliters) were injected into the right rear flank of 4-5 week old male homozygous (nu/nu) nude mice (Harlan, Madison Wis.). Tumors were allowed to grow to an average size of ≧75 mm^3 before treatments were initiated. Animals of each tumor type, with the properly sized tumors, were divided into treatment groups, including one set of animals treated weekly with vehicle (phosphate buffered saline, PBS). The vehicle and the test agents were all administered by intraperitoneal injection. Each animal was weighed twice a week during treatment. The tumors were measured twice weekly using calipers. Tumor volume (mm^3) was determined by using the formula for an ellipsoid sphere:
[formula] The efficacy of wild type human RNase 1 is shown relative to cisplatin. The RNase 1 was administered at 75 mg per kg of body weight of the animal once a week (75 mg/kg 1×wk), while the cisplatin was used at 6 mg/kg once a week. The value of n represents the number of animals in the specific treatment arm of the experiment.
as §2
The xenograft model of this example was set up with the human non-small cell lung cancer cell line (A549) as in the previous examples. The efficacy of wild type human RNase 1 is shown relative to tarceva. The RNase 1 was administered at 75 mg per kg of body weight of the animal (75 mg/kg 1×wk) or 150 mg/kg 1×wk. Tarceva was given orally with doses of 50 mg/kg twice a week. The value of n represents the number of animals in the specific treatment arm of the experiment.

The subject of assay [3] is human breast cancer cell line (MDA-MB-231). The assay can be described thus: In vivo inhibition of tumor growth, MDA-MB-231 xenograft. Set-up: species or system human tumor cells in nude mice. The note with it: Example 10, Table 14, female mice, RNase 1 75 mg/kg 1×wk, doxorubicin 3 mg/kg once per week. How it is done:
as §1, §2
The xenograft model of this example was set up as in the previous example except that a human breast cancer cell line (MDA-MB-231) and female mice were used. The efficacy of wild type human RNase 1 is shown relative to doxorubicin. The RNase 1 was administered at 75 mg per kg of body weight of the animal once per week (75 mg/kg 1×wk), while the doxorubicin was given at 3 mg/kg once per week. The value of n represents the number of animals in the specific treatment arm of the experiment.

The test system of assay [4] is human pancreatic cancer cell line (B×PC-3). Put plainly: In vivo inhibition of tumor growth, BxPC-3 xenograft. On the set-up: species or system human tumor cells in nude mice. The settings on record: Example 5, Table 9, RNase 1 15 mg/kg qd×5, gemcite 60 mg/kg twice a week. How it is done:
as §1, §2
The xenograft model of this example was set up as in the previous example except that a human pancreatic cancer cell line (B×PC-3) was used. The efficacy of wild type human RNase 1 is shown relative to gemcite. The RNase 1 was administered at 15 mg per kg of body weight of the animal five times per week (15 mg/kg qd×5), while the gemcite was used at 60 mg/kg twice a week. The value of n represents the number of animals in the specific treatment arm of the experiment.
The xenograft model of this example was set up as in the previous example except that a human pancreatic cancer cell line (B×PC-3) was used. The efficacy of wild type human RNase 1 is shown. The RNase 1 was administered at three different doses: (1) 30 mg per kg of body weight of the animal once per week (30 mg/kg 1×wk), (2) 75 mg/kg 1×wk, or (3) 150 mg/kg 1×wk. The value of n represents the number of animals in the specific treatment arm of the experiment.

Where [5] appears, read: Example 3, Table 7, i.p., RNase 1 75 mg/kg 1×wk, cisplatin 6 mg/kg once a week.
[6] abbreviates: Example 6, Table 10, orally 50 mg/kg twice a week.

Residue numbers refer to the chain shown, from its start. Numbers in names are those of the source.

On to `N.N.[Cl][Pt][Cl]` [cisplatin, Cisplatin, reference compound], for which, in assay [1] (Table 2, FIG. 1), the “% TGI” value turned out to be 68%, the “(Final − start)” value is reported as 290 mm^3, the Final volume is recorded as 369 mm^3 and the “(Final − start)/Control” value is recorded as 0.32. This molecule showed a Starting volume in assay [1] (Table 2, FIG. 1) of 79 mm^3. Besides, in assay [2] (setting [5]), the “% TGI” value was found to be 81%, the “(Final − start)” value is on record as 58 mm^3, the “(Final − start)/Control” value worked out at 0.19 and the Final volume stood at 130 mm^3. In assay [2] (setting [5]), this molecule gave a Starting volume of 72 mm^3.

Regarding `C#Cc1cccc(Nc2ncnc3cc(OCCOC)c(OCCOC)cc23)c1` [Tarceva, N-(3-ethynylphenyl)-6,7-bis(2-methoxyethoxy)quinazolin-4-amine, reference compound], in assay [2] (setting [6]), the “% TGI” value was found to be 77%, the “(Final − start)” value came out at 181 mm^3, the “(Final − start)/Control” value was found to be 0.23 and the Final volume is given as 265 mm^3. In assay [2] (setting [6]), this molecule yielded a Starting volume of 84 mm^3.

On to `COc1cccc2c1C(=O)c1c(O)c3c(c(O)c1C2=O)C[C@@](O)(C(=O)CO)C[C@@H]3O[C@H]1C[C@H](N)[C@H](O)[C@H](C)O1` [doxorubicin, reference compound], for which, in assay [3], the “% TGI” value amounted to 84%, the “(Final − start)” value was found to be 22 mm^3, the “(Final − start)/Control” value came out at 0.16 and the Final volume is 86 mm^3. Besides, in assay [3] (at start), the Starting volume was determined as 64 mm^3.

For the molecule `Nc1ccn([C@@H]2O[C@H](CO)[C@@H](O)C2(F)F)c(=O)n1` [Gemcite, reference compound], in assay [4], the “% TGI” value is given as 60%, the “(Final − start)” value is reported as 427 mm^3, the “(Final − start)/Control” value is 0.40 and the Final volume is 505 mm^3. Besides, in assay [4] (at start), the Starting volume was determined as 78 mm^3.

B1: G38R/R39D/L86E/N88R/G89D/R91D RNase 1: variant of human RNase 1 with substitutions G38R, R39D, L86E, N88R, G89D, R91D (protein)
chain: KESRAKKFQRQHMDSDSSPSSSSTYCNQMMRRRNMTQRDCKPVNTFVHEPLVDVQNVCFQEKVTCKNGQGNCYKSNSSMHITDCRETRDSDYPNCAYRTSPKERHIIVACEGSPYVPVHFDASVEDST
Take B1: in assay [1] (Table 2, FIG. 1), the “% TGI” value came out at 28%, the “(Final − start)” value came to 647 mm^3, the Final volume worked out at 723 mm^3 and the “(Final − start)/Control” value is listed as 0.72. In addition, the Starting volume in assay [1] (Table 2, FIG. 1) was 76 mm^3. In addition, in assay [1], the “tumor growth inhibition (in words)” value is “displayed tumor growth inhibition”.

B2: R4C/K7A/G38R/R39D/L86E/N88R/G89D/R91D/V118C RNase 1: variant of human RNase 1 with substitutions R4C, K7A, G38R, R39D, L86E, N88R, G89D, R91D, V118C (protein)
chain: B1 chain with R4C, K7A, V118C
Regarding B2, in assay [1] (Table 4, FIG. 3), the “% TGI” value is 36%, the “(Final − start)” value is given as 478 mm^3, the Final volume came out at 552 mm^3 and the “(Final − start)/Control” value came to 0.36. The same molecule displayed a Starting volume in assay [1] (Table 4, FIG. 3) of 74 mm^3. For the same molecule, the “tumor growth inhibition (in words)” value in assay [1] is “demonstrated measurable tumor growth inhibition”.

B3: L86E/N88R/G89D/R91D RNase 1: variant of human RNase 1 with substitutions L86E, N88R, G89D, R91D (protein)
chain: B1 chain with R38G, D39R
Turning to B3, in assay [1] (Table 2, FIG. 1), the “% TGI” value was 40%, the “(Final − start)” value is listed as 540 mm^3, the Final volume is given as 624 mm^3 and the “(Final − start)/Control” value is 0.60. The molecule further had a Starting volume in assay [1] (Table 2, FIG. 1) of 84 mm^3. Also, the “tumor growth inhibition (in words)” value in assay [1] is on record as “displayed tumor growth inhibition”.

B4: R4C/G38R/R39D/L86E/N88R/G89D/R91D/V118C RNase 1: variant of human RNase 1 with substitutions R4C, G38R, R39D, L86E, N88R, G89D, R91D, V118C (protein)
chain: B1 chain with R4C, V118C
In the case of B4, in assay [1] (Table 3, FIG. 2), the “% TGI” value is 48%, the “(Final − start)” value is 1022 mm^3, the Final volume is on record as 1130 mm^3 and the “(Final − start)/Control” value was 0.52. The molecule further had a Starting volume in assay [1] (Table 3, FIG. 2) of 108 mm^3. For the same molecule, the “tumor growth inhibition (in words)” value in assay [1] was “impacted tumor growth”.

Source of the values: patent US9192656B2, “Methods and compositions for the treatment of cancer” (QUINTESSENCE BIOSCIENCES, INC., priority 2006, dated 2015).
